Format in all cases: biochemical
Experiment [1] deals with PLK3 (Homo sapiens, UniProt Q9H4B4). The experiment is described as follows: PLK TR-FRET peptide assay, PLK3. The settings on record: GST-PLK3, 15 min reaction, read-out: Plk3 IC50. (In general: Time-resolved FRET reads energy transfer from a long-lived donor to a nearby acceptor.)
For experiment [2], the target named is PLK2 (Homo sapiens, UniProt Q9NYY3). Nature of the experiment: PLK TR-FRET peptide assay, PLK2. The settings on record: PLK TR-FRET peptide assay, GST-PLK2, 60 min reaction; read-out: Plk2 IC50.
The target in experiment [3] is PLK1 (Homo sapiens, UniProt P53350). The experiment is described as follows: PLK TR-FRET peptide assay, PLK1. The conditions noted are these: GST-PLK1, 60 min reaction.

The structures appear in SMILES notation.

Chain of PLK1 (P53350 whole entry): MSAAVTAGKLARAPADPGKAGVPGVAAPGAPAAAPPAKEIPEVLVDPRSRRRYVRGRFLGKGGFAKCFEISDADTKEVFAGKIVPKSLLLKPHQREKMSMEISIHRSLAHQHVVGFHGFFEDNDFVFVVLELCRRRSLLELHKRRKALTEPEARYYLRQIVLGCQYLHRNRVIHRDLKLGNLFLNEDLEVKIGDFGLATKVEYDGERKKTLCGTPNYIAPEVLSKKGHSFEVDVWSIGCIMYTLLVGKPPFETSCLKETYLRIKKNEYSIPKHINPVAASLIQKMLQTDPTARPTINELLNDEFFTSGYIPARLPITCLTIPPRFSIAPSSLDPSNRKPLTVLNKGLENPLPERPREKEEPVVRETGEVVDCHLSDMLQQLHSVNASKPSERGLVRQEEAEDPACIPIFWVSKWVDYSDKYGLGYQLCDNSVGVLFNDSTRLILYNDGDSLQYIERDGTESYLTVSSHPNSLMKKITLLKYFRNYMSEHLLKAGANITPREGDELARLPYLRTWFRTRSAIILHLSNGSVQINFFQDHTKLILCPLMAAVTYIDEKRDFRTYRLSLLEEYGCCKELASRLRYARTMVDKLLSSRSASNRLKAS
Chain of PLK3 (Q9H4B4 whole entry): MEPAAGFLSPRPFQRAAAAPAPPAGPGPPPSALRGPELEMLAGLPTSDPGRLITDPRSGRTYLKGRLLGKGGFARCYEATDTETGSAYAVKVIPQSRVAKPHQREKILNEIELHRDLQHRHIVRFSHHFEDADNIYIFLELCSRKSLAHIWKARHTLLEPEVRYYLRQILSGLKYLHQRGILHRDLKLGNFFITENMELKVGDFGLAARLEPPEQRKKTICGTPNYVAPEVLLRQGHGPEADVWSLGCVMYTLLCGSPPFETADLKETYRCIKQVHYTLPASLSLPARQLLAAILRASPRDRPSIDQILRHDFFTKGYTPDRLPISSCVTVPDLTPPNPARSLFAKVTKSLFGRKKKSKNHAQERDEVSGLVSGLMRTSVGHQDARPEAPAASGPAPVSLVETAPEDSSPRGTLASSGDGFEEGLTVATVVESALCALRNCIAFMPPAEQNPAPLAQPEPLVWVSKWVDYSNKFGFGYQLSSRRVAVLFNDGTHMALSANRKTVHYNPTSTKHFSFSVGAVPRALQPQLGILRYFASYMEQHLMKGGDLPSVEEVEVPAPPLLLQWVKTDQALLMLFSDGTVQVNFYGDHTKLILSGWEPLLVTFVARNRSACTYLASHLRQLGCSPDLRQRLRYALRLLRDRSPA
Chain of PLK2 (Q9NYY3 whole entry): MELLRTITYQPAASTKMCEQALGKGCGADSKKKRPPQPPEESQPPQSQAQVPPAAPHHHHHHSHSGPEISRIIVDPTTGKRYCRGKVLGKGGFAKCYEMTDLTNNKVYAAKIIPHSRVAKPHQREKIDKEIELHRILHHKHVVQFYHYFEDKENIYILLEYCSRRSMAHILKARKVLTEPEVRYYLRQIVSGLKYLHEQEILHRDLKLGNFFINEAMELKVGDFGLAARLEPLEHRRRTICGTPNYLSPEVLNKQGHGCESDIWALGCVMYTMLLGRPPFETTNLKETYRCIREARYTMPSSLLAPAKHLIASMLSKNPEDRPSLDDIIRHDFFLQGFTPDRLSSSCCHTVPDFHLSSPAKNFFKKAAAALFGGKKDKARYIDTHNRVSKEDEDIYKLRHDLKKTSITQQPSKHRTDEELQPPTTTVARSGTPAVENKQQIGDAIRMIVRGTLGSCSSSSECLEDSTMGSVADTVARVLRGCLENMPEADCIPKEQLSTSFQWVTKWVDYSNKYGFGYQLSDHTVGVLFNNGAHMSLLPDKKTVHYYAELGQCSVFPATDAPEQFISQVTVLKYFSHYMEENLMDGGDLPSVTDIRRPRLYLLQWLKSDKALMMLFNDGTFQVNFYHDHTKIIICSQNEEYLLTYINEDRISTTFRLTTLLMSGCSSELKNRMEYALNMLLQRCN

Broadly, the IC50 is the concentration needed to halve the response being measured. With `[2H]C([2H])([2H])N1C(=O)C(C([2H])([2H])C([2H])([2H])[2H])N(C([2H])(C([2H])([2H])[2H])C([2H])([2H])[2H])c2nc(-n3ccnc3-c3nccs3)ncc21` (stereo not drawn) [Example 158, 7-perdeuteroethyl-8-perdeuteroisopropyl-5-trideuteromethyl-2-(2-(thiazol-2-yl)-1H-imidazol-1-yl)-7,8-dihydropteridin-6(5H)-one], the half-inhibitory concentration (IC50) in experiment [1] was 10 to 50 µM; in experiment [2], under 1 µM; in experiment [3], 1 to 10 µM.
On to `CC[C@@H]1C(=O)N(C)c2cnc(-c3cccc(C(=O)N(C)C)c3)nc2N1C1CCCC1` [Example 57, (R)-3-(8-cyclopentyl-7-ethyl-5-methyl-6-oxo-5,6,7,8-tetrahydropteridin-2-yl)-N,N-dimethylbenzamide], for which the half-maximal inhibitory concentration (IC50) in experiment [1] was over 50 µM; in experiment [2], 1 to 10 µM; in experiment [3], 1 to 10 µM.
Regarding `CC[C@@H]1C(=O)N(C)c2cnc(-c3ccncc3NC(=O)OC(C)(C)C)nc2N1C(C)C` [Example 94, (R)-tert-butyl 4-(7-ethyl-8-isopropyl-5-methyl-6-oxo-5,6,7,8-tetrahydropteridin-2-yl)pyridin-3-ylcarbamate], the IC50 is over 50 µM in experiment [1], 1 to 10 µM in experiment [2] and 10 to 50 µM in experiment [3].
The matching figures for `CC[C@@H]1C(=O)N(C)c2cnc(-n3ccnc3-c3cnccn3)nc2N1C1CC1` [Example 141, (R)-8-cyclopropyl-7-ethyl-5-methyl-2-(2-(pyrazin-2-yl)-1H-imidazol-1-yl)-7,8-dihydropteridin-6(5H)-one]: over 50 µM, 1 to 10 µM and over 50 µM.
The matching figures for `CC[C@@H]1C(=O)N(C)c2cnc(-n3ccnc3-c3ccc(F)cn3)nc2N1C1CCC1` [Example 224, (R)-8-cyclobutyl-7-ethyl-2-(2-(5-fluoropyridin-2-yl)-1H-imidazol-1-yl)-5-methyl-7,8-dihydropteridin-6(5H)-one]: 10 to 50 µM, under 1 µM and 1 to 10 µM.
For `CC[C@@H]1C(=O)N(C)c2cnc(-n3ccnc3-c3ccc(F)cc3F)nc2N1C1CC(F)(F)C1` [Example 260, (R)-8-(3,3-difluorocyclobutyl)-2-(2-(2,4-difluorophenyl)-1H-imidazol-1-yl)-7-ethyl-5-methyl-7,8-dihydropteridin-6(5H)-one], in that order: 10 to 50 µM, under 1 µM and 1 to 10 µM.
Regarding `CCC12CCCCCN1c1nc(-n3ncnc3-c3cccc4ncccc34)ncc1N(C)C2=O` (racemic) [Example 217, (+/−) 6a-ethyl-5-methyl-2-(5-(quinolin-5-yl)-1H-1,2,4-triazol-1-yl)-6a,7,8,9,10,11-hexahydroazepino[2,1-h]pteridin-6(5H)-one], the half-inhibitory concentration (IC50) in experiment [1] was over 50 µM; in experiment [2] it was 10 to 50 µM; in experiment [3], over 50 µM.
Take `CC[C@@H]1C(=O)N(C)c2cnc(-n3ccnc3-c3cccc(C#N)c3)nc2N1C(C)C` [Example 228, (R)-3-(1-(7-ethyl-8-isopropyl-5-methyl-6-oxo-5,6,7,8-tetrahydropteridin-2-yl)-1H-imidazol-2-yl)benzonitrile]: the 50% inhibitory concentration (IC50) was 10 to 50 µM in experiment [1], under 1 µM in experiment [2] and 1 to 10 µM in experiment [3].
With `CC[C@@H]1C(=O)N(C)c2cnc(-n3ccnc3N3CCN(C)CC3)nc2N1C1CCCC1` [Example 88, (R)-8-cyclopentyl-7-ethyl-5-methyl-2-(2-(4-methylpiperazin-1-yl)-1H-imidazol-1-yl)-7,8-dihydropteridin-6(5H)-one], the IC50 in experiment [1] is over 50 µM; in experiment [2], 10 to 50 µM; in experiment [3], 10 to 50 µM.
`CC[C@@H]1C(=O)N(C)c2cnc(-n3cnc(-c4nccs4)c3)nc2N1C1CCCC1` [Example 60, (R)-8-cyclopentyl-7-ethyl-5-methyl-2-(4-(thiazol-2-yl)-1H-imidazol-1-yl)-7,8-dihydropteridin-6(5H)-one]: the figures for the IC50 in experiment [1], in experiment [2] and in experiment [3] were 1 to 10 µM, under 1 µM and under 1 µM, respectively.
In the case of `CCC12CCCCN1c1nc(-n3ccnc3)ncc1N(C)C2=O` (racemic) [Example 283, (+/−) 6a-ethyl-2-(1H-imidazol-1-yl)-5-methyl-7,8,9,10-tetrahydro-5H-pyrido[2,1-h]pteridin-6(6aH)-one], the IC50 in experiment [1] was over 50 µM; in experiment [2] it was 10 to 50 µM; in experiment [3], over 50 µM.
Take `CCC12CCCCN1c1nc(-n3ccnc3-c3cc(F)c(F)c(F)c3)ncc1N(C)C2=O` (racemic) [Example 256, (+/−) 6a-ethyl-5-methyl-2-(2-(3,4,5-trifluorophenyl)-1H-imidazol-1-yl)-7,8,9,10-tetrahydro-5H-pyrido[2,1-h]pteridin-6(6aH)-one]: the IC50 in experiment [1] was over 50 µM; in experiment [2] it was under 1 µM; in experiment [3], over 50 µM.
In the case of `CC[C@]12CCCCN1c1nc(-n3ccnc3-c3ccc(F)cc3F)ncc1N(C)C2=O` [Example 270, (R)-2-(2-(2,4-difluorophenyl)-1H-imidazol-1-yl)-6a-ethyl-5-methyl-7,8,9,10-tetrahydro-5H-pyrido[2,1-h]pteridin-6(6aH)-one], the IC50 in experiment [1] was over 50 µM; in experiment [2], 10 to 50 µM; in experiment [3], over 50 µM.
As for `CC[C@@H]1C(=O)N(C)c2cnc(-c3ccncc3NC(=O)CC(C)(C)C)nc2N1C1CCCC1` [Example 108, (R)—N-(4-(8-cyclopentyl-7-ethyl-5-methyl-6-oxo-5,6,7,8-tetrahydropteridin-2-yl)pyridin-3-yl)-3,3-dimethylbutanamide], the IC50 is over 50 µM in experiment [1], 10 to 50 µM in experiment [2] and 10 to 50 µM in experiment [3].
For `CC[C@@H]1C(=O)N(C)c2cnc(-c3ccncc3NS(C)(=O)=O)nc2N1C(C)C` [Example 119, (R)—N-(4-(7-ethyl-8-isopropyl-5-methyl-6-oxo-5,6,7,8-tetrahydropteridin-2-yl)pyridin-3-yl)methanesulfonamide], the IC50 in experiment [1] is over 50 µM; in experiment [2], 1 to 10 µM; in experiment [3], over 50 µM.
With `CC[C@@H]1C(=O)N(C)c2cnc(-n3ccnc3-c3cc(Cl)cc(Cl)c3)nc2N1C1CCC1` [Example 198, (R)-8-cyclobutyl-2-(2-(3,5-dichlorophenyl)-1H-imidazol-1-yl)-7-ethyl-5-methyl-7,8-dihydropteridin-6(5H)-one], the IC50 in experiment [1] is 1 to 10 µM; in experiment [2], under 1 µM; in experiment [3] it was 1 to 10 µM.
For `CC[C@@H]1C(=O)N(C)c2cnc(-n3ccnc3N3CCOCC3)nc2N1C1CCCC1` [Example 87, (R)-8-cyclopentyl-7-ethyl-5-methyl-2-(2-morpholino-1H-imidazol-1-yl)-7,8-dihydropteridin-6(5H)-one], the half-maximal inhibitory concentration (IC50) is over 50 µM in experiment [1], 1 to 10 µM in experiment [2] and 1 to 10 µM in experiment [3].
For `CC[C@@H]1C(=O)N(C)c2cnc(-n3ccnc3-c3ccccc3)nc2N1C(C)C1CC1` (stereo partly drawn) [Example 350, (7R)-8-(1-cyclopropylethyl)-7-ethyl-5-methyl-2-(2-phenyl-1H-imidazol-1-yl)-7,8-dihydropteridin-6(5H)-one], the IC50 in experiment [1], in experiment [2] and in experiment [3] was under 1 µM throughout.

The values are drawn from patent publication US8541418B2, “Inhibitors of polo-like kinase” (Elan Pharmaceutical, Inc., priority 2009, dated 2013).
